The values below come from patent US11839214B2, “Fungicidal mixture comprising substituted pyridines” (BASF SE, priority 2017, dated 2023).

What all share (format): cell-based
One assay has as its system Botrytis cinerea. Nature of the assay: Activity against the grey mold Botrytis cinerea in the microtiterplate test.
The subject of another assay is Septoria tritici. Nature of the assay: Activity against leaf blotch on wheat caused by Septoria tritici (microtiterplate test).
In another assay the test system is Pyricularia oryzae. Nature of the assay: microbe, parasite or virus in culture. The conditions noted are these: for Observed efficacy: single active compound.
Where [1] appears, read: single active compound, 0.063 ppm.
[2] abbreviates: Zymoseptoria tritici, 168 h, single active, 0.063 ppm, read-out: Observed efficacy.
Where [3] appears, read: Pyricularia oryzae, 168 h, read-out: Observed efficacy.
Where [4] appears, read: Botrytis cinerea, 168 h, single active compound, 4 ppm, read-out: Observed efficacy.
[5] abbreviates: Zymoseptoria tritici, 168 h, single active, 4 ppm, read-out: Observed efficacy.
[6] abbreviates: single active compound, 0.25 ppm.
The mark [7] stands for this setting: Botrytis cinerea, 168 h, read-out: Observed efficacy.
The mark [8] stands for this setting: Zymoseptoria tritici, 168 h, read-out: Observed efficacy.
Setting [9] is: Zymoseptoria tritici, 168 h, single active, 0.004 ppm, read-out: Observed efficacy.
Setting [10] is: Botrytis cinerea, 168 h, single active compound, 1 ppm, read-out: Observed efficacy.
[11] abbreviates: Botrytis cinerea, 168 h, single active compound, read-out: Observed efficacy.
Setting [12] is: Zymoseptoria tritici, 168 h, single active, read-out: Observed efficacy.
Setting [13] is: Zymoseptoria tritici, 168 h, single active, 0.016 ppm, read-out: Observed efficacy.

Where two headings read alike, the source gives them in different places.

With `CO/C=C(/C(=O)OC)c1ccccc1Oc1cc(Oc2ccccc2C#N)ncn1` [Azoxystrobin, azoxystrobin], the Observed efficacy in the assay on Botrytis cinerea (setting [1]) was found to be 5%; in the assay on Septoria tritici (single active, 0.004 ppm), 5%; with Septoria tritici (single active, 0.016 ppm) it was 2%; in the assay on Septoria tritici (single active, 0.063 ppm), 26%; in the assay on Pyricularia oryzae (0.004 ppm) it was 4%; in the assay with Pyricularia oryzae (0.016 ppm) it was 44%.
As for `OC(Cc1ccccc1Cl)(Cn1nc[nH]c1=S)C1(Cl)CC1` (stereo not shown) [Prothioconazol, prothioconazole], the inhibition of growth at 0.063 ppm with Septoria tritici (setting [2]) worked out at 1%. Besides, the inhibition of growth at 0.25 ppm with Pyricularia oryzae (setting [3]) was 12%.
Mancozeb: the Observed efficacy with Septoria tritici (single active, 1 ppm) was found to be 16%.
With `Cn1cc(C(=O)Nc2ccccc2-c2cc(F)c(F)c(F)c2)c(C(F)F)n1` [Fluxapyroxad, fluxapyroxad], the Observed efficacy worked out at 28% in the assay on Botrytis cinerea (setting [1]); 24% in the assay on Septoria tritici (single active, 0.063 ppm); 8% in the assay on Pyricularia oryzae (0.063 ppm).
For `Cc1cc(C2CC2)nc(Nc2ccccc2)n1` [Cyprodinil, cyprodinil], the inhibition of growth at 4 ppm in the assay on Botrytis cinerea (setting [4]) worked out at 53%; in the assay on Septoria tritici (setting [5]), 10%; in the assay with Pyricularia oryzae (setting [3]) it was 61%. The inhibition of growth at 1 ppm in the assay with Pyricularia oryzae (setting [3]) came to 50%.
As for inpyrfluxam, the Observed efficacy was 44% with Botrytis cinerea (setting [6]) and 22% in the assay on Septoria tritici (single active, 0.25 ppm).
For the compound `COCC(=O)N(c1c(C)cccc1C)C(C)C(=O)OC` (stereo not shown) [Metalaxyl, metalaxyl], the inhibition of growth at 4 ppm with Botrytis cinerea (setting [4]) stood at 19%. In the assay with Pyricularia oryzae (setting [3]), the inhibition of growth at 1 ppm came to 4% and the inhibition of growth at 4 ppm was determined as 11%.
`Cc1nc(C(F)(F)F)c(C(=O)Nc2c(Br)cc(OC(F)(F)F)cc2Br)s1` [Thifluzamid, thifluzamide]: the inhibition of growth at 4 ppm came to 37% in the assay on Botrytis cinerea (setting [7]), 69% in the assay with Septoria tritici (setting [8]) and 16% in the assay on Pyricularia oryzae (setting [3]). Also, in the assay on Pyricularia oryzae (setting [3]), the inhibition of growth at 1 ppm was 2%.
Turning to `FC(F)C(F)(F)OCC(Cn1cncn1)c1ccc(Cl)cc1Cl` (stereo not shown) [Tetraconazol, tetraconazole], the inhibition of growth at 0.063 ppm in the assay with Botrytis cinerea (Botrytis cinerea, 168 h, single active compound, 0.063 ppm, read-out: Observed efficacy) was found to be 5%; in the assay with Septoria tritici (setting [2]) it was 12%; with Pyricularia oryzae (setting [3]) it was 7%. The inhibition of growth at 0.004 ppm in the assay with Septoria tritici (setting [9]) was determined as 6%.
In the case of `C=CCOC(Cn1ccnc1)c1ccc(Cl)cc1Cl` (stereo not shown) [Imazalil, imazalil], the inhibition of growth at 1 ppm in the assay with Botrytis cinerea (setting [10]) amounted to 54%; in the assay with Pyricularia oryzae (setting [3]) it was 20%.
Regarding `Cc1nc2c(F)c(F)ccc2cc1Oc1cccc(F)c1C(C)(C)O` [drawing 29], in the assay on Pyricularia oryzae (setting [3]), the inhibition of growth at 4 ppm came to 50%.
With `O=C(Nc1ccccc1-c1ccc(Cl)cc1)c1cccnc1Cl` [Boscalid, boscalid], the inhibition of growth at 1 ppm with Botrytis cinerea (setting [10]) is 63%; in the assay on Septoria tritici (Zymoseptoria tritici, 168 h, single active, 1 ppm, read-out: Observed efficacy), 58%. In the assay on Pyricularia oryzae (setting [3]), the inhibition of growth at 0.25 ppm is 2%. In addition, the inhibition of growth at 4 ppm in the assay with Pyricularia oryzae (setting [3]) was 10%.
Turning to `Cc1ccc(C(=O)OCc2ccc(Oc3ccccc3)cc2)c(N)n1` [Aminopyrifen, aminopyrifen], the Observed efficacy with Pyricularia oryzae (0.001 ppm) is 0%; in the assay on Pyricularia oryzae (0.004 ppm), 6%; in the assay on Pyricularia oryzae (0.016 ppm) it was 36%.
On to `Cc1cccc2sc3nncn3c12` [Tricyclazol, tricyclazole], for which the inhibition of growth at 4 ppm in the assay on Botrytis cinerea (setting [4]) is 2%; in the assay with Pyricularia oryzae (setting [3]), 6%.
Turning to `COc1cc(C)c(C(=O)c2c(OC)ccc(Br)c2C)c(OC)c1OC` [Metrafenon, metrafenone], the results for the inhibition of growth at 4 ppm in the assay on Botrytis cinerea (setting [4]), in the assay on Septoria tritici (setting [5]) and with Pyricularia oryzae (setting [3]) were 3%, 4% and 7%, respectively. Further, the values for the inhibition of growth at 16 ppm in the assay with Botrytis cinerea (setting [11]) and with Septoria tritici (setting [12]) were 18% and 16%, respectively. In addition, the inhibition of growth at 1 ppm in the assay with Pyricularia oryzae (setting [3]) was determined as 2%.
For the compound `COc1ccnc(C(=O)N[C@@H](C)C(=O)O[C@@H](C)C(c2ccc(F)cc2)c2ccc(F)cc2)c1OC(C)=O` [Florylpicoxamid, florylpicoxamid], the Observed efficacy with Botrytis cinerea (setting [6]) is on record as 2%; in the assay with Botrytis cinerea (single active compound, 1 ppm), 12%; in the assay with Septoria tritici (single active, 0.063 ppm) it was 54%; with Septoria tritici (single active, 0.25 ppm), 79%; with Pyricularia oryzae (0.016 ppm) it was 49%.
Consider `Cc1cccc(-n2nnn(C)c2=O)c1COc1ccn(-c2ccc(Cl)cc2)n1` [Methyltetraprol, metyltetrapole], for which the Observed efficacy in the assay with Septoria tritici (single active, 0.004 ppm) is 5%; in the assay on Septoria tritici (single active, 0.016 ppm) it was 22%; in the assay with Pyricularia oryzae (0.016 ppm), 24%.
For `CC#Cc1cc(C)nc(Nc2ccccc2)n1` [Mepanipyrim, mepanipyrim], the inhibition of growth at 1 ppm worked out at 63% in the assay with Botrytis cinerea (setting [10]) and 45% with Pyricularia oryzae (setting [3]). Further, the inhibition of growth at 4 ppm in the assay with Botrytis cinerea (setting [4]) turned out to be 72%; in the assay on Pyricularia oryzae (setting [3]), 64%. In the assay with Pyricularia oryzae (setting [3]), the inhibition of growth at 0.25 ppm is 3%.
As for `O=C1CCc2cccc3c2N1CC3` [Pyroquilon, pyroquilon], the inhibition of growth at 1 ppm in the assay with Botrytis cinerea (setting [7]) is 2%; with Pyricularia oryzae (setting [3]), 7%.
Turning to `CC1(C)CCC(=Cc2ccc(Cl)cc2)C1(O)Cn1cncn1` (stereo not shown) [Triticonazol, triticonazole], the inhibition of growth at 1 ppm in the assay with Pyricularia oryzae (setting [3]) is 10%.
Turning to `CNC(=O)/C(=N/OC)c1ccccc1COc1cc(C)ccc1C` [Dimoxystrobin, dimoxystrobin], the Observed efficacy turned out to be 0% in the assay on Botrytis cinerea (setting [1]); 12% with Botrytis cinerea (setting [6]); 2% in the assay with Septoria tritici (single active, 0.016 ppm); 27% with Septoria tritici (single active, 0.063 ppm).
As to `CC1CC(C)(C)c2c(F)ccc(NC(=O)c3cn(C)nc3C(F)F)c21` (stereo not shown) [Fluindapyr, fluindapyr], the Observed efficacy with Botrytis cinerea (setting [6]) was found to be 30%; with Septoria tritici (single active, 0.25 ppm), 22%; with Septoria tritici (single active, 1 ppm), 67%; in the assay on Pyricularia oryzae (1 ppm), 41%.
In the assay with Septoria tritici (single active, 0.063 ppm), `CC1(C)CCC(Cc2ccc(Cl)cc2)C1(O)Cn1cncn1` (stereo not shown) [Metconazol] registered an Observed efficacy of 30%.
Turning to `Cc1cc(OC(C)C)ccc1C(=O)C(C)(C)NC(=O)c1sccc1C` [Isofetamid, isofetamid], the Observed efficacy stood at 68% in the assay with Botrytis cinerea (single active compound, 1 ppm); 44% with Septoria tritici (single active, 0.25 ppm); 1% in the assay with Pyricularia oryzae (1 ppm); 10% in the assay with Pyricularia oryzae (4 ppm).
With `C=CCOC1=NS(=O)(=O)c2ccccc21` [Probenazol, probenazole], the inhibition of growth at 63 ppm in the assay with Botrytis cinerea (setting [11]) was 22%. The inhibition of growth at 4 ppm with Septoria tritici (setting [5]) worked out at 4%; in the assay on Pyricularia oryzae (setting [3]), 2%. Also, the inhibition of growth at 16 ppm in the assay on Pyricularia oryzae (setting [3]) came out at 12%.
As to `CC1COC(Cn2cncn2)(c2ccc(Oc3ccc(Cl)cc3)cc2Cl)O1` (stereo not shown) [Difenoconazol, difenoconazole], the inhibition of growth at 0.25 ppm in the assay with Botrytis cinerea (Botrytis cinerea, 168 h, single active compound, 0.25 ppm, read-out: Observed efficacy) amounted to 21%. The inhibition of growth at 0.016 ppm in the assay on Septoria tritici (setting [13]) was determined as 22%. In the assay on Pyricularia oryzae (setting [3]), the inhibition of growth at 0.063 ppm was 2% and the inhibition of growth at 0.25 ppm is 11%.
Take `CNC(=O)C(OC)c1ccccc1COc1cc(C)ccc1C` (stereo not shown) [Mandestrobin, mandestrobin]: the Observed efficacy in the assay on Septoria tritici (single active, 1 ppm) was determined as 11%; in the assay with Pyricularia oryzae (1 ppm), 9%.
The compound `CON(C(=O)c1cn(C)nc1C(F)F)C(C)Cc1c(Cl)cc(Cl)cc1Cl` (stereo not shown) [Pydiflumetofen, pydiflumetofen] displayed an Observed efficacy in the assay on Pyricularia oryzae (1 ppm) of 44%.
For the compound `Cc1ccc(NC(=O)c2snnc2C)cc1Cl` [Tiadinil, tiadinil], the figures for the inhibition of growth at 16 ppm in the assay on Botrytis cinerea (setting [11]), with Septoria tritici (setting [12]) and in the assay on Pyricularia oryzae (setting [3]) were 6%, 18% and 10%, respectively. Further, the inhibition of growth at 63 ppm in the assay with Botrytis cinerea (setting [11]) was 19%; with Septoria tritici (Zymoseptoria tritici, 168 h, single active, 63 ppm, read-out: Observed efficacy), 30%; in the assay with Pyricularia oryzae (setting [3]), 21%. Further, the inhibition of growth at 4 ppm in the assay on Septoria tritici (setting [5]) is 21%; in the assay with Pyricularia oryzae (setting [3]) it was 2%.
In the case of metiram, the Observed efficacy in the assay with Septoria tritici (single active, 1 ppm) worked out at 2%; in the assay with Septoria tritici (single active, 4 ppm), 4%; in the assay with Pyricularia oryzae (4 ppm) it was 8%.
For `COC(=O)N(OC)c1ccccc1COc1ccn(-c2ccc(Cl)cc2)n1` [Pyraclostrobin, pyraclostrobin], the inhibition of growth at 0.004 ppm in the assay on Septoria tritici (setting [9]) worked out at 7%. The inhibition of growth at 0.016 ppm in the assay with Septoria tritici (setting [13]) was 52%. Besides, in the assay on Pyricularia oryzae (setting [3]), the inhibition of growth at 0.001 ppm turned out to be 4% and the inhibition of growth at 0.004 ppm came out at 14%.
As to prohexadione-calcium [Prohexadion-ca], the Observed efficacy is listed as 12% in the assay on Septoria tritici (single active, 63 ppm) and 8% in the assay with Pyricularia oryzae (63 ppm).
Take `OCC1=C[C@H](N[C@H]2C[C@H](CO)[C@@H](O[C@@H]3O[C@H](CO)[C@@H](O)[C@H](O)[C@H]3O)[C@H](O)[C@H]2O)[C@H](O)[C@@H](O)[C@@H]1O` [Validamycin, validamycin]: in the assay on Pyricularia oryzae (setting [3]), the inhibition of growth at 63 ppm was determined as 10%.
For the compound `O=C(NCCc1ncc(C(F)(F)F)cc1Cl)c1ccccc1C(F)(F)F` [Fluopyram, fluopyram], the inhibition of growth at 0.25 ppm in the assay on Septoria tritici (Zymoseptoria tritici, 168 h, single active, 0.25 ppm, read-out: Observed efficacy) is 23%; with Pyricularia oryzae (setting [3]), 7%.
For `Cc1nc2c(F)c(F)ccc2cc1Oc1cccc(F)c1C(C)(C)O` [drawing 43], the inhibition of growth at 1 ppm in the assay with Septoria tritici (setting [8]) was determined as 45%.
As to `S1SSSSSSS1` [Sulfur, sulfur], in the assay on Septoria tritici (setting [8]), the inhibition of growth at 1 ppm came to 18%. Also, the inhibition of growth at 4 ppm with Pyricularia oryzae (setting [3]) amounted to 54%.
Turning to `CC(O)(Cn1cncn1)c1ccc(Oc2ccc(Cl)cc2)cc1C(F)(F)F` (stereo not shown) [Mefentrifluconazol, mefentrifluconazole], the Observed efficacy in the assay on Botrytis cinerea (single active compound, 0.016 ppm) was determined as 10%; with Pyricularia oryzae (0.016 ppm), 7%.
